{"source": "patent US8772235B2", "about": "“Compounds having peptides conjugated to bone targeting moieties and methods of making and using thereof” (The Governors of the University of Alberta, priority 2009, dated 2014)", "key": {"[1]": {"test": "Effect on plasma calcium level in normal rats (SMCC series)", "assay_type": "in vivo, rat", "settings": "20 IU sCT/kg equivalent, subcutaneous", "method": "(§1) Pharmacodynamic response of sCT analogue was evaluated by analyzing plasma calcium concentration in the rat model. Sprague Dawley female rats weighing 230-260 g (about 6 weeks old) were purchased from Charles River, USA and housed at the University of Alberta Animal Holding Unit. All experimental protocols were approved by the Animals Ethics Committee of the University of Alberta. The rats were divided randomly into five groups of 3 animals each and the pharmacodynamic response was assessed following subcutaneous administration of the sCT or analogue equivalent to 20 IU sCT/kg body weight. Rats were anesthetized using Isoflurane inhalation anesthesia and the 200 μl blood samples were obtained in heparinized Eppendorf microtubes before drug injection. Then 100 μl of sCT or equivalent dose in 20 mM Sodium Acetate buffer pH 5 was sub cu injected and the blood samples were collected 1, 2, 3 and 4 hrs post injection from jugular vein. Blood plasma was obtained by centrifuging the samples at 5000 rpm for 10 min and collecting the supernatant. Plasma calcium level was assayed by QuantiChrom™ Calcium Assay Kit (BioAssay Systems, CA USA) and the plasma phosphate level was assayed by QuantiChrom™ Phosphate Assay Kit (BioAssay Systems, CA USA)."}, "[2]": {"test": "Bone mineral specificity: calcium oxalate binding assay", "settings": "1 h, 100 mM phosphate buffer pH 7", "method": "(§2) Bone targeting potential of sCT analogue was evaluated by determining the effect of sCT modification (due to chemical coupling) upon its bone mineral affinity. Specific volume of purified sCT analogue solution containing 10 μg of sCT was mixed with 1 mg Hydroxyapatite (HA) in 150 μL 100 mM phosphate buffer (pH 7.0) in microcentrifuge tubes in duplicate to give a final concentration of 66.67 μg/ml sCT. As a reference, control samples were incubated in tubes without HA (i.e., 0% of binding).\n(§3) The tubes were incubated at room temperature on a shaker for 1 h, and centrifuged at 5000 g for 5 minutes to separate the HA from the supernatant. sCT concentration in the supernatant was determined using the BCA microprotein assay (Pierce, USA) as described above. HA centrifugate remaining after removal of supernatant was washed five times using 1 mL buffer each time and the last washing after centrifugation at 5000 g for 5 minutes was collected. Both the washings and the HA centrifugate were then analyzed for sCT as described above. The amount of sCT in the supernatant, washings and HA centrifugate was then inferred by measuring the absorbance at 562 nm, with a value of 100% for control samples without HA.\n(§4) Bone mineral specificity of sCT analogue was then determined in the above manner using HA, calcium carbonate, calcium pyrophosphate, tricalcium phosphate and calcium oxalate."}, "[3]": {"test": "ELISA: anti-calcitonin antibody epitope and bone calcium binding on calcium phosphate coated plate (SMCC series)", "settings": "1 μg/well, OD 650 nm", "method": "(§5) sCT or sCT analogues equivalent to 1 μg/well were added in Calcium Phosphate coated Osteoclast Activity Assay Substrate plate (OCT USA, Inc.) in duplicate and the binding of BP to the calcium phosphate was allowed for 1 hours in the presence of 100 μl 100 mM Sodium Phosphate buffer pH 7. Plates were then washed three times with the same buffer containing 0.05% v/v Tween 80 (PBST). To avoid nonspecific binding, the wells were incubated with 3% w/v Bovine Serum Albumin for 1 h at room temperature. After washings, the wells were incubated with 100 μl of 1:5000 diluted rabbit anti-salmon calcitonin primary antibodies (US Biologicals, USA) for 1 h at room temperature. The wells were then washed three times with PBST and the bound antibodies were then incubated with secondary antibody, 1:5000 diluted goat anti-rabbit IgG conjugated with horseradish peroxidase (GAM-HRPO), for 1 h at room temperature. After final washings, 100 μl of 3,3′,5,5′-tetramethylbenzidine (TMB substrate) was added to each well and incubated for 15 min at room temperature. The optical density (OD) was measured at 650 nm using an ELISA Vmax kinetic microplate reader (Molecular Devices Corp., California, and USA)."}, "[4]": {"test": "Bone mineral specificity: tri-calcium phosphate binding assay", "settings": "1 h, 100 mM phosphate buffer pH 7", "method": "as §2, §3, §4"}, "[5]": {"test": "ELISA: anti-calcitonin antibody epitope binding on calcium phosphate coated plate (PEG series)", "settings": "1 μg/well, OD 650 nm", "method": "as §5, with “with […]” for “with 100 μl”, “primary monoclonal” for “primary”, “were detected using” for “were then incubated with”, “peroxidase (GAM-HRPO)” for “peroxidase (GAM-HRPO),”"}, "[6]": {"test": "Circular dichroism, secondary structure of sCT, sCT-PEG and sCT-PEG-BP", "assay_type": "physicochemical", "settings": "20 mM acetate buffer pH 5.0, ~400 μg/mL sCT or equivalent", "method": "For a more detailed analysis of the influence of structural alteration of sCT on secondary structure of sCT analogue, the circular dichroism (CD) spectrum of sCT, sCT-PEG and sCT-PEG-BP was measured in the 20 mM acetate buffer pH 5.0. CD spectra were obtained with a ConvCD spectrophotometer instrument. Spectra were acquired over a wavelength range of 190 to 260 nm. The N2 flow rate was set at 5 l/min. The sample cuvette (100 μL) was cleaned with 20 mM Sodium Acetate buffer pH 5, and the spectra of test samples, which comprised of ˜400 μg/mL of sCT or equivalent the same buffer, were recorded with the corresponding buffer serving as blanks."}, "[7]": {"test": "Bone mineral specificity: calcium pyrophosphate binding assay", "settings": "1 h, 100 mM phosphate buffer pH 7", "method": "as §2, §3, §4"}, "[8]": {"test": "Effect on plasma phosphate level in normal rats (SMCC series)", "assay_type": "in vivo, rat", "settings": "20 IU sCT/kg equivalent, subcutaneous", "method": "as §1"}, "[9]": {"settings": "first hour, vs acetate buffer controls"}}, "data": [{"substance": "Salmon calcitonin [sCT, reference compound]", "values": [{"measurement": "percentage of plasma calcium reduction", "setting": "[1]; 4 hour post dosing", "value": "32.03±2.11", "unit": "%"}, {"measurement": "percentage of plasma calcium reduction", "setting": "[1]; [9]", "value": "20.33±5.5", "unit": "%"}, {"measurement": "percentage of plasma calcium reduction", "setting": "[1]; second hour", "value": "28.98±4.65", "unit": "%"}, {"measurement": "percentage of plasma calcium reduction", "setting": "[1]; third hour", "value": "29.85±4.11", "unit": "%"}, {"measurement": "sCT recovered in supernatant after incubation with Calcium oxalate", "setting": "[2]", "value": "did not significantly reduce the sCT concentration in the supernatant"}, {"measurement": "detection in ELISA after binding to calcium phosphate plate", "setting": "[3]", "value": "not significantly detected"}, {"measurement": "sCT bound to Tri-Calcium Phosphate", "setting": "[4]", "value": "no significant difference in the affinity"}, {"measurement": "detection in ELISA after binding to calcium phosphate plate", "setting": "[5]", "value": "not significantly detected"}, {"measurement": "secondary structure by CD spectrum", "setting": "[6]", "value": "random coil conformation"}, {"measurement": "sCT recovered in supernatant after incubation with Calcium Pyrophosphate", "setting": "[7]", "value": "did not significantly reduce the sCT concentration in the supernatant"}, {"measurement": "percentage of plasma phosphate reduction", "setting": "[8]; 4 hour post dosing", "value": "14.69±3.71", "unit": "%"}, {"measurement": "percentage of plasma phosphate reduction", "setting": "[8]; [9]", "value": "11.91±6.24", "unit": "%"}, {"measurement": "percentage of plasma phosphate reduction", "setting": "[8]; second hour", "value": "11.64±13.01", "unit": "%"}]}]}
